Assay results published in ChEMBL document CHEMBL1129701, “-Vinyllysine and -vinylarginine are time-dependent inhibitors of their cognate decarboxylases” (Bioorg Med Chem Lett, 1996).

Key:
[1] = Half life was reported; assay type: ADME
[2] = Compound was evaluated for binding affinity against L-lysine decarboxylase (LDC) from Bacterium cadaveris in UV time dependent assay.
[3] = tested on: bacterium cadaveris; assay: Rate of inactivation against L-lysine decarboxylase (LDC) from Bacterium cadaveris was determined in UV time dependent assay.
[4] = tested on: bacterium cadaveris; assay: Compound was evaluated for inhibition L-lysine decarboxylase (LDC) from Bacterium cadaveris in UV time dependent assay.
[5] = Compound was evaluated for binding affinity towards L-arginine decarboxylase (ADC) from Escherichia coli in UV time dependent assay.
[6] = tested on: Escherichia coli; assay: Rate of inactivation against L-arginine decarboxylase (ADC) from Escherichia coli was determined in UV time dependent assay.
[7] = tested on: Escherichia coli; assay: Compound was evaluated for inhibition of L-arginine decarboxylase (ADC) from Escherichia coli in UV time dependent assay.

Row | SMILES | half-life [1] [min] | Ki [2] [mM] | K inact [3] [min⁻¹] | Km [4] [µM] | Ki [5] [mM] | K inact [6] [min⁻¹] | Km [7] [µM]
1 | C=C[C@](N)(CCCCN)C(=O)O (racemic) | 35 | 0.5 | 0.02 | 640 |  |  | 
2 | C=C[C@](N)(CCCNC(=N)N)C(=O)O (racemic) | 19 |  |  |  | 1.8 | 0.036 | 180
